According to US20250144067A1, “PERSONALIZED STARVATION THERAPY FOR CANCER” (Faeth Therapeutics, Inc., priority 2021, published 2025):
Counter-ions that a name gives are not always drawn. Like-named read-outs stand apart in the source and are kept apart here.

What was measured:
[1] = system: NCI-H292 lung cancer cells; assay: FDA drug screening, complete media vs cholesterol-free media with simvastatin (TABLE 2); format: cell-based, human
[2] = system: NCI-H292 lung cancer cells; assay: FDA drug screening, complete media vs cholesterol-free media without statin (TABLE 1); format: cell-based, human
[3] = NCI-H292 cells, FDA library drug in cholesterol-free media with simvastatin 0.04 μM
[4] = NCI-H292 cells, FDA library drug in complete media
[5] = complete media vs cholesterol-free media + simvastatin (0.04 μM), […]
[6] = Complete minus Cholesterol-free, […]
[7] = NCI-H292 cells, FDA drug library screen, cholesterol-free media without statin
[8] = NCI-H292 cells, FDA drug library screen, complete media
[9] = NCI-H292 cells, FDA drug library screen, cholesterol-free media with simvastatin 0.04 μM
[10] = complete media minus cholesterol-free media + simvastatin, >0 enhanced anti-cancer activity, about 0 neutral, <0 antagonist
[11] = Complete minus Cholesterol-free, >0 enhanced anti-cancer activity, about 0 neutral, <0 antagonist
[12] = NCI-H292 cells, cholesterol-free media without statin, FDA drug library screen
[13] = NCI-H292 cells, complete media, FDA drug library screen
[14] = NCI-H292 cells, cholesterol-free media without statin
[15] = complete vs cholesterol-free media, greater than 0 enhanced anti-cancer activity, about 0 neutral, below 0 antagonists
[16] = complete media vs cholesterol-free media + simvastatin (0.04 μM), >0 enhanced anti-cancer activity, about 0 neutral, <0 antagonist
[17] = NCI-H292 cells, cholesterol-free media with simvastatin 0.04 μM, FDA drug library screen (TABLE 2)
[18] = NCI-H292 cells, complete media, FDA drug library screen (TABLE 2)
[19] = complete media minus cholesterol-free media + simvastatin (0.04 μM), >0 enhanced anti-cancer activity, about 0 neutral, <0 antagonist
[20] = Complete minus Cholesterol-free, greater than 0 enhanced anti-cancer activity, about 0 neutral, below 0 antagonist

With `CN(C)c1cc(NC(=O)CNC(C)(C)C)c(O)c2c1C[C@H]1C[C@H]3[C@H](N(C)C)C(O)=C(C(N)=O)C(=O)[C@@]3(O)C(O)=C1C2=O` [Tigecycline] the “Cholesterol-free media + simvastatin (0.04 μM)” value [1, 3] was 1.179, the “Complete Media” value [1, 4] was 0.8929 and the Difference [1, 5] was −0.29. The Difference [2, 6] was −0.13, the Cholesterol-free [2, 7] was 1.231 and the Complete [2, 8] was 1.106.

`N=C1CCCN1Cc1nc(O)nc(O)c1Cl` [Tipiracil (hydrochloride)] was tested, and the “Cholesterol-free media + simvastatin (0.04 μM)” value [1, 9] was 0.8843, the “Complete Media” value [1, 8] was 1.03 and the Difference [1, 10] was 0.15. It also gave a Difference [2, 11] of 0.03, a Cholesterol-free [2, 12] of 0.8754 and a Complete [2, 13] of 0.9052.

`CCCCOc1ccc(OCCCN2CCOCC2)cc1` [Pramocaine (hydrochloride)] was tested, and the “Cholesterol-free media + simvastatin (0.04 μM)” value [1, 9] was 0.6469, the “Complete Media” value [1, 8] was 1.047 and the Difference [1, 10] was 0.40. The Cholesterol-free [2, 14] was 1.301, the Complete ([2]; NCI-H292 cells, complete media) was 0.9298 and the Difference [2, 15] was −0.37.

With `CCOc1cc2ncc(C#N)c(Nc3ccc(OCc4ccccn4)c(Cl)c3)c2cc1NC(=O)/C=C/CN(C)C` [Neratinib] the “Cholesterol-free media + simvastatin (0.04 μM)” value [1] was 0.3387, the “Complete Media” value [1] was 0.3007 and the Difference [1] was −0.04. It also gave a Cholesterol-free [2] of 0.06707, a Complete [2] of 0.1268 and a Difference [2] of 0.06.

With `C[C@H]1C[C@@H]2[C@H]([C@@H](O)C[C@@]3(C)[C@H]2CC[C@]3(O)C(=O)COC(=O)CCC(=O)O)[C@@]2(C)C=CC(=O)C=C12` [Methylprednisolone succinate] the “Cholesterol-free media + simvastatin (0.04 μM)” value ([1]; NCI-H292 cells, drug in cholesterol-free media with simvastatin 0.04 μM) was 0.9151, the “Complete Media” value ([1]; NCI-H292 cells, drug in complete media) was 0.7051 and the Difference [1, 16] was −0.21. The Cholesterol-free [2, 14] was 0.8243, the Complete ([2]; NCI-H292 cells, complete media) was 0.4661 and the Difference [2, 15] was −0.36.

`CN1CCN(c2cc3c(nn2)Oc2ccccc2N3C)CC1.Cl.Cl.O` [Azaphen (dihydrochloride monohydrate)] was tested, and the “Cholesterol-free media + simvastatin (0.04 μM)” value [1, 9] was 1.02, the “Complete Media” value [1, 8] was 0.9251 and the Difference [1, 5] was −0.09. The Cholesterol-free [2, 14] was 1.204, the Complete ([2]; NCI-H292 cells, complete media) was 0.7783 and the Difference ([2]; complete vs cholesterol-free media, […]) was −0.43.

In the case of `C[C@@H](OC[C@@]1(c2ccccc2)CC[C@]2(CCC(=O)N2)CN1)c1cc(C(F)(F)F)cc(C(F)(F)F)c1` [Rolapitant], the “Cholesterol-free media + simvastatin (0.04 μM)” value [1, 9] is reported as 1.001, the “Complete Media” value [1, 8] is reported as 0.9304 and the Difference [1, 16] is reported as −0.07. The Difference [2, 11] was −0.04, the Cholesterol-free [2, 12] was 0.9892 and the Complete [2, 13] was 0.9523.

`Cl.NCCC[C@H](N)C(=O)O` [L-Ornithine (hydrochloride)] was tested, and the “Cholesterol-free media + simvastatin (0.04 μM)” value [1, 17] was 0.8763, the “Complete Media” value [1, 18] was 0.8132 and the Difference [1, 19] was −0.06. For the same compound, the Difference [2, 20] was −0.11, the Cholesterol-free [2, 7] was 1.434 and the Complete [2, 8] was 1.328.

For `CC(C)Cc1ccc(C(C)C(=O)OCc2ccccn2)cc1` (stereo not drawn) [Ibuprofen piconol], the “Cholesterol-free media + simvastatin (0.04 μM)” value [1, 3] was 1.357, the “Complete Media” value [1, 4] was 0.8958 and the Difference [1, 16] was −0.46. For the same compound, the Difference [2, 20] was −0.18, the Cholesterol-free [2, 7] was 1.26 and the Complete [2, 8] was 1.082.

`CCC(=O)O[C@@H](O[P@](=O)(CCCCc1ccccc1)CC(=O)N1C[C@H](C2CCCCC2)C[C@H]1C(=O)O)C(C)C` [Fosinopril (sodium)] was tested, and the “Cholesterol-free media + simvastatin (0.04 μM)” value [1, 9] was 0.91, the “Complete Media” value [1, 8] was 1.199 and the Difference [1, 10] was 0.29. It also gave a Difference ([2]; Complete minus Cholesterol-free, greater than 0 enhanced anti-cancer activity, about 0 neutral, below 0 antagonists) of −0.52, a Cholesterol-free ([2]; NCI-H292 cells in cholesterol-free media without statin) of 1.831 and a Complete ([2]; NCI-H292 cells in complete media) of 1.313.

For `Cc1nc2ccc(CN(C)c3ccc(C(=O)N[C@@H](CCC(=O)O)C(=O)O)s3)cc2c(=O)[nH]1` [Raltitrexed], the “Cholesterol-free media + simvastatin (0.04 μM)” value [1, 17] was 0.1121, the “Complete Media” value [1, 18] was 0.0907 and the Difference [1, 19] was −0.02. It also gave a Difference [2, 11] of −0.24, a Cholesterol-free [2, 14] of 0.3503 and a Complete ([2]; NCI-H292 cells, complete media) of 0.1117.

With `O=P(O)(O)C(O)(Cn1ccnc1)P(=O)(O)O` [Zoledronic acid (monohydrate)] the “Cholesterol-free media + simvastatin (0.04 μM)” value [1, 9] was 0.7262, the “Complete Media” value [1, 8] was 0.8945 and the Difference [1, 10] was 0.17. It also gave a Difference [2, 11] of −0.23, a Cholesterol-free [2, 14] of 1.033 and a Complete ([2]; NCI-H292 cells, complete media) of 0.8069.

In the case of `COc1cccc(CCc2ccccc2OCC(CN(C)C)OC(=O)CCC(=O)O)c1` (stereo not drawn) [Sarpogrelate (hydrochloride)], the “Cholesterol-free media + simvastatin (0.04 μM)” value [1, 3] is reported as 1.378, the “Complete Media” value [1, 4] is reported as 1.089 and the Difference [1, 16] is reported as −0.29. For the same compound, the Cholesterol-free [2, 14] was 1.015, the Complete ([2]; NCI-H292 cells, complete media) was 0.6472 and the Difference [2, 15] was −0.37.

`O=c1cc[nH]c(=O)[nH]1` [Uracil] was tested, and the “Cholesterol-free media + simvastatin (0.04 μM)” value [1, 3] was 1.203, the “Complete Media” value [1, 4] was 0.8949 and the Difference [1, 16] was −0.31. It also gave a Difference [2, 20] of −0.17, a Cholesterol-free [2, 7] of 1.032 and a Complete [2, 8] of 0.8653.

For Acetylspiramycin, the “Cholesterol-free media + simvastatin (0.04 μM)” value [1, 9] was 1.237, the “Complete Media” value [1, 8] was 1.1 and the Difference [1, 5] was −0.14. It also gave a Difference [2, 6] of −0.20, a Cholesterol-free [2, 14] of 1.42 and a Complete ([2]; NCI-H292 cells, complete media) of 1.224.
